Consider 4 compounds from US9102582B2, “Method of producing alcohols” (priority 2009, dated 2015).

For series [1] the following is noted: cited from earlier work.
A further series can be described thus: solubility in water. The settings on record: same solubility expressed in moles.

`CCCC(=O)OCC` [ethyl butyrate]: in series [1], the solubility in water is listed as 0.68 grams per 100 ml of water. In addition, the “solubility in water (molar)” value in the series “solubility in water” is recorded as 0.059 moles per 1000 ml of water.
For `CBr` [methyl bromide], in series [1], the solubility in water is given as 0.09 grams per 100 ml of water. In addition, the “solubility in water (molar)” value in the series “solubility in water” is 0.0094 moles per 1000 ml of water.
Take `CCBr` [ethyl bromide]: in series [1], the solubility in water was 0.91 grams per 100 ml of water. Further, in the series “solubility in water”, the “solubility in water (molar)” value is listed as 0.0835 moles per 1000 ml of water.
As for `COC(=O)c1ccccc1` [methyl benzoate], the solubility in water in series [1] is 0.157 grams per 100 ml of water. Further, the “solubility in water (molar)” value in the series “solubility in water” is recorded as 0.001532 moles per 1000 ml of water.
